Patent US7994320B2, “Narcistatin prodrugs” (priority 2002, dated 2011)

Columns and labels:
MCF-7 = experiment: Human cancer cell line growth inhibition, breast MCF-7; format: cell-based
Description: (§1) Narciclasine cyclic phosphate prodrugs 3a-o were evaluated against a minipanel of human cancer cell lines and the murine P388 lymphocytic leukemia. The GI50 0.1-0.02 μg/ml strong activity range parallels that already reported for the parent, narciclasine (1). (Pettit, G. R.; Melody, N.; Herald, D. L. J. Org. Chem. 2001, 66, 2583-2587.)

KM20L2 = experiment: Human cancer cell line growth inhibition, colon KM20L2; format: cell-based
Description: as §1

DU-145 = experiment: Human cancer cell line growth inhibition, prostate DU-145; format: cell-based
Description: as §1

SF 268 = experiment: Human cancer cell line growth inhibition, CNS SF 268; format: cell-based
Description: as §1

BXPC-3 = experiment: Human cancer cell line growth inhibition, pancreas BXPC-3; format: cell-based
Description: as §1

NCI-H460 = experiment: Human cancer cell line growth inhibition, lung NCI-H460; format: cell-based
Description: as §1

M5076 sarcoma = settings: U.S. National Cancer Institute research; cited from earlier work
[1] = tested on: Erlich asciter cancer cells; settings: cited from earlier work
[2] = tested on: P388 lymphocytic leukemia; settings: U.S. National Cancer Institute research; cited from earlier work
Solubility in water = settings: solvent not stated

In the case of `O=C1N[C@@H]2C(=C[C@H](O)[C@H]3OP(=O)(O)O[C@H]32)c2cc3c(c(O)c21)OCO3.c1ccncc1` [Compound 3a, Pyridinium Narcistatin], the “GI50 Breast MCF-7” value (MCF-7) is reported as 0.27 µg/mL, the “GI50 Colon KM20L2” value (KM20L2) is reported as 0.34 µg/mL and the “GI50 Prostate DU-145” value (DU-145) is reported as 0.17 µg/mL. For the same molecule, the “GI50 CNS SF 268” value (SF 268) was 0.15 µg/mL, the “GI50 Pancreas-a BXPC-3” value (BXPC-3) was 0.22 µg/mL and the “GI50 Lung-NSC NCI-H460” value (NCI-H460) was 0.27 µg/mL.

With `O=C1NC2C(=CC(O)C3OP(=O)([O-])OC23)c2cc3c(c(O)c21)OCO3.O=C1NC2C(=CC(O)C3OP(=O)([O-])OC23)c2cc3c(c(O)c21)OCO3.[Mn+2]` (stereo not shown) [Compound 3j, Manganese Narcistatin] the “GI50 Breast MCF-7” value (MCF-7) was 0.07 µg/mL, the “GI50 Colon KM20L2” value (KM20L2) was 0.13 µg/mL and the “GI50 Prostate DU-145” value (DU-145) was 0.034 µg/mL. For the same molecule, the “GI50 CNS SF 268” value (SF 268) was 0.04 µg/mL, the “GI50 Pancreas-a BXPC-3” value (BXPC-3) was 0.049 µg/mL and the “GI50 Lung-NSC NCI-H460” value (NCI-H460) was 0.15 µg/mL.

For `C=C[C@@H]1CN2CC[C@@H]1C[C@H]2[C@@H](O)c1ccnc2ccc(OC)cc12.O=C1N[C@@H]2C(=C[C@H](O)[C@H]3OP(=O)(O)O[C@H]32)c2cc3c(c(O)c21)OCO3` [Compound 3k, Quinidinium Narcistatin], the “GI50 Breast MCF-7” value (MCF-7) was 0.5 µg/mL, the “GI50 Colon KM20L2” value (KM20L2) was 0.58 µg/mL and the “GI50 Prostate DU-145” value (DU-145) was 0.22 µg/mL. The “GI50 CNS SF 268” value (SF 268) was 0.25 µg/mL, the “GI50 Pancreas-a BXPC-3” value (BXPC-3) was 0.31 µg/mL and the “GI50 Lung-NSC NCI-H460” value (NCI-H460) was 0.77 µg/mL.

In the case of `C=C[C@@H]1CN2CC[C@@H]1C[C@@H]2[C@H](O)c1ccnc2ccc(OC)cc12.O=C1N[C@@H]2C(=C[C@H](O)[C@H]3OP(=O)(O)O[C@H]32)c2cc3c(c(O)c21)OCO3` [Compound 3l, Quininium Narcistatin], the “GI50 Breast MCF-7” value (MCF-7) is reported as 0.12 µg/mL, the “GI50 Colon KM20L2” value (KM20L2) is reported as 0.12 µg/mL and the “GI50 Prostate DU-145” value (DU-145) is reported as 0.013 µg/mL. For the same molecule, the “GI50 CNS SF 268” value (SF 268) was 0.045 µg/mL, the “GI50 Pancreas-a BXPC-3” value (BXPC-3) was 0.051 µg/mL and the “GI50 Lung-NSC NCI-H460” value (NCI-H460) was 0.17 µg/mL.

In the case of `C1COCCN1.O=C1N[C@@H]2C(=C[C@H](O)[C@H]3OP(=O)(O)O[C@H]32)c2cc3c(c(O)c21)OCO3` [Compound 3n, Morpholinium Narcistatin], the “GI50 Breast MCF-7” value (MCF-7) is reported as 0.48 µg/mL, the “GI50 Colon KM20L2” value (KM20L2) is reported as 0.54 µg/mL and the “GI50 Prostate DU-145” value (DU-145) is reported as 0.14 µg/mL. For the same molecule, the “GI50 CNS SF 268” value (SF 268) was 0.24 µg/mL, the “GI50 Pancreas-a BXPC-3” value (BXPC-3) was 0.25 µg/mL and the “GI50 Lung-NSC NCI-H460” value (NCI-H460) was >1 µg/mL.

For `O=C1N[C@@H]2C(=C[C@H](O)[C@@H](O)[C@H]2O)c2cc3c(c(O)c21)OCO3` [narciclasine (1), narciclasine], the “activity against in vivo growth of M5076 sarcoma” value (M5076 sarcoma) is listed as “active”, the “inhibition of protein synthesis” value [1] is listed as “inhibit protein synthesis” and the “activity against in vivo growth of P388 lymphocytic leukemia” value [2] is listed as “active”. For the same molecule, the “solubility” value (Solubility in water) was “sparingly soluble”.

For Calcium Narcistatin [Compound 3h], the “GI50 Breast MCF-7” value (MCF-7) was 0.059 µg/mL, the “GI50 Colon KM20L2” value (KM20L2) was 0.059 µg/mL and the “GI50 Prostate DU-145” value (DU-145) was 0.0093 µg/mL. For the same molecule, the “GI50 CNS SF 268” value (SF 268) was 0.031 µg/mL, the “GI50 Pancreas-a BXPC-3” value (BXPC-3) was 0.045 µg/mL and the “GI50 Lung-NSC NCI-H460” value (NCI-H460) was 0.12 µg/mL.

With Cesium Narcistatin [Compound 3f] the “GI50 Breast MCF-7” value (MCF-7) was 0.62 µg/mL, the “GI50 Colon KM20L2” value (KM20L2) was 0.66 µg/mL and the “GI50 Prostate DU-145” value (DU-145) was 0.13 µg/mL. The “GI50 CNS SF 268” value (SF 268) was 0.33 µg/mL, the “GI50 Pancreas-a BXPC-3” value (BXPC-3) was 0.41 µg/mL and the “GI50 Lung-NSC NCI-H460” value (NCI-H460) was >1 µg/mL.

In the case of Imidazolium Narcistatin [Compound 3m], the “GI50 Breast MCF-7” value (MCF-7) is reported as 0.9 µg/mL, the “GI50 Colon KM20L2” value (KM20L2) is reported as >1 µg/mL and the “GI50 Prostate DU-145” value (DU-145) is reported as 0.44 µg/mL. The “GI50 CNS SF 268” value (SF 268) was 0.38 µg/mL, the “GI50 Pancreas-a BXPC-3” value (BXPC-3) was 0.45 µg/mL and the “GI50 Lung-NSC NCI-H460” value (NCI-H460) was >1 µg/mL.

In the case of Lithium Narcistatin [Compound 3c], the “GI50 Breast MCF-7” value (MCF-7) is reported as 0.31 µg/mL, the “GI50 Colon KM20L2” value (KM20L2) is reported as 0.26 µg/mL and the “GI50 Prostate DU-145” value (DU-145) is reported as 0.13 µg/mL. For the same molecule, the “GI50 CNS SF 268” value (SF 268) was 0.17 µg/mL, the “GI50 Pancreas-a BXPC-3” value (BXPC-3) was 0.25 µg/mL and the “GI50 Lung-NSC NCI-H460” value (NCI-H460) was 0.3 µg/mL.

With Magnesium Narcistatin [Compound 3g] the “GI50 Breast MCF-7” value (MCF-7) was 0.25 µg/mL, the “GI50 Colon KM20L2” value (KM20L2) was 0.31 µg/mL and the “GI50 Prostate DU-145” value (DU-145) was 0.1 µg/mL. The “GI50 CNS SF 268” value (SF 268) was 0.14 µg/mL, the “GI50 Pancreas-a BXPC-3” value (BXPC-3) was 0.19 µg/mL and the “GI50 Lung-NSC NCI-H460” value (NCI-H460) was 0.29 µg/mL.

In the case of Narcistatin [Compound 3b], the “GI50 Breast MCF-7” value (MCF-7) is reported as 0.35 µg/mL, the “GI50 Colon KM20L2” value (KM20L2) is reported as 0.53 µg/mL and the “GI50 Prostate DU-145” value (DU-145) is reported as 0.16 µg/mL. For the same molecule, the “GI50 CNS SF 268” value (SF 268) was 0.22 µg/mL, the “GI50 Pancreas-a BXPC-3” value (BXPC-3) was 0.33 µg/mL and the “GI50 Lung-NSC NCI-H460” value (NCI-H460) was 0.47 µg/mL.

For Piperazinium Narcistatin [Compound 3o], the “GI50 Breast MCF-7” value (MCF-7) was 0.17 µg/mL, the “GI50 Colon KM20L2” value (KM20L2) was 0.22 µg/mL and the “GI50 Prostate DU-145” value (DU-145) was 0.032 µg/mL. The “GI50 CNS SF 268” value (SF 268) was 0.099 µg/mL, the “GI50 Pancreas-a BXPC-3” value (BXPC-3) was 0.1 µg/mL and the “GI50 Lung-NSC NCI-H460” value (NCI-H460) was 0.24 µg/mL.

For Potassium Narcistatin [Compound 3e], the “GI50 Breast MCF-7” value (MCF-7) was 0.4 µg/mL, the “GI50 Colon KM20L2” value (KM20L2) was 0.56 µg/mL and the “GI50 Prostate DU-145” value (DU-145) was 0.26 µg/mL. For the same molecule, the “GI50 CNS SF 268” value (SF 268) was 0.19 µg/mL, the “GI50 Pancreas-a BXPC-3” value (BXPC-3) was 0.36 µg/mL and the “GI50 Lung-NSC NCI-H460” value (NCI-H460) was 0.67 µg/mL.

For Sodium Narcistatin [Compound 3d], the “GI50 Breast MCF-7” value (MCF-7) was 0.56 µg/mL, the “GI50 Colon KM20L2” value (KM20L2) was 0.45 µg/mL and the “GI50 Prostate DU-145” value (DU-145) was 0.12 µg/mL. The “GI50 CNS SF 268” value (SF 268) was 0.23 µg/mL, the “GI50 Pancreas-a BXPC-3” value (BXPC-3) was 0.32 µg/mL and the “GI50 Lung-NSC NCI-H460” value (NCI-H460) was >1 µg/mL.

With Zinc Narcistatin [Compound 3i] the “GI50 Breast MCF-7” value (MCF-7) was 0.14 µg/mL, the “GI50 Colon KM20L2” value (KM20L2) was 0.16 µg/mL and the “GI50 Prostate DU-145” value (DU-145) was 0.016 µg/mL. The “GI50 CNS SF 268” value (SF 268) was 0.053 µg/mL, the “GI50 Pancreas-a BXPC-3” value (BXPC-3) was 0.069 µg/mL and the “GI50 Lung-NSC NCI-H460” value (NCI-H460) was 0.21 µg/mL.
